How the values were obtained:
[1] = Racemization time course of enantiomers in working solution (functional assessment); format: physicochemical; settings: standard experimental (aqueous working) solution
Text: The enantiomers of EU1794-27 were separated to determine whether the racemic activity reflected the actions of only one enantiomer (see Supplemental methods). (-)-EU1794-27 potentiated NMDAR responses similarly to the racemic mixture (Figure 8—figure supplement 1A, Table 7). […] We previously reported ([Katzman et al., 2015]) that purified enantiomers were likely to racemize in aqueous solutions, which should proceed by a first-order reaction dependent on multiple factors such as ionic strength, pH, buffer, etc. ([Smith et al., 1978]). Thus, to quantitatively determine if racemization would impact our experiments using the enantiomers, we performed a functional assessment of this property in our standard experimental solution. […] Both enantiomers of EU1794-4 inhibited NMDAR responses, but with different potencies (Figure 8—figure supplement 1C, Supplementary File 2). […] All enantiomer studies, other than the racemization time-course, were performed rapidly to minimize any racemization, being completed in less than 80 min after making the aqueous solution of modulator.
Figure 8. The enantiomers of EU1794-4 and EU1794-27 have different action. […] (C) Single concentration competition experiments illustrating an interaction between both enantiomers of EU1794-4 (+and -) and the positive modulating enantiomer of EU1794-27 (-) at GluN1/GluN2D. […] Figure 8—figure supplement 1. […]

diheteromeric NMDARs = test: Two-electrode voltage-clamp recordings, statements across all diheteromeric NMDARs; format: cell-based, rat
Experimental: cDNAs for rat wild type NMDAR subunits GluN1-1a (GenBank U11418, U08261; hereafter GluN1 or GluN1a), GluN1-1b (U08263, hereafter GluN1b), GluN2A (D13211), GluN2B (U11419), GluN2C (M91563), and GluN2D (L31611, modified as described in [Monyer et al., 1994]) were provided by Drs. S. Heinemann (Salk Institute), S. Nakanishi (Kyoto University), and P. Seeburg (University of Heidelberg). Site-directed mutagenesis was conducted using the QuikChange kit (Agilent Technologies, Santa Clara, CA) following the recommended protocol. DNA sequencing was used to verify all mutations. The amino acid numbering system started with the initiating methionine as residue number one. For expression in Xenopus laevis oocytes, cDNA constructs were linearized by restriction enzymes, and subsequently used to synthesize in vitro cRNAs following the manufacturer’s protocol (mMessage mMachine, Ambion, ThermoFisher Scientific, Waltham, MA).
Xenopus laevis stage VI oocytes (Ecocyte Biosciences, Austin, TX) were injected as previously described ([Hansen et al., 2013]) 2–7 days prior to recording with cRNA encoding the NMDAR subunits and stored at 15°C in media containing (in mM) 88 NaCl, 2.4 NaHCO3, 1 KCl, 0.33 Ca(NO3)2, 0.41 CaCl2, 0.82 MgSO4, 5 Tris-HCl; pH was adjusted to 7.4 with NaOH and the solution supplemented with 1 U/mL penicillin, 0.1 mg/mL gentamicin sulfate, and 1 μg/mL streptomycin. Two-electrode voltage-clamp recordings were performed at room temperature (21–23°C) using different internal solutions for voltage and current electrodes (0.3 M and 3.0 M KCl, respectively). All extracellular solutions were made from a solution containing (in mM) 90 NaCl, 1 KCl, 10 HEPES, 0.5 BaCl2, 0.01 EDTA (pH 7.4 with NaOH). Experiments were performed using an eight port Modular Valve Positioner (Hamilton Company, Reno, NV) and controlled by custom software (Easy Oocyte, Emory University, Atlanta, GA)to exchange solutions. Oocyte currents were recorded at a holding potential of −40 mV using a two-electrode voltage-clamp amplifier (OC-725B or OC-725C, Warner Instruments, Hamden, CT). […]

| half-life at 10 µM [1] [h] | melting point | Structure (SMILES) | potency of (-) enantiomer relative to (+) enantiomer (diheteromeric NMDARs; inhibition, across subtypes) | residual current at saturating levels (diheteromeric NMDARs; saturating EU1794-4) | saturated inhibition (diheteromeric NMDARs; saturating modulator and agonist, across NMDAR subtypes) |
| --- | --- | --- | --- | --- | --- |
| 3.27 | 163 °C (dec.) | CCOC(=O)c1c(NC(=O)CC2SC(=N)NC2=O)sc2c1CCCC2 (stereo not drawn) [EU1794-4, ethyl 2-(2-(2-imino-4-oxothiazolidin-5-yl)acetamido)-4,5,6,7-tetrahydrobenzo[b]thiophene-3-carboxylate] | 3–10 fold | 30–60% | 40–70 % of control |
| 3.28 |  | CC(C)(C)OC(=O)c1c(NC(=O)CC2SC(=N)NC2=O)sc2c1CCCC2 (stereo not drawn) [EU1794-27, tert-butyl 2-(2-(2-imino-4-oxothiazolidin-5-yl)acetamido)-4,5,6,7-tetrahydrobenzo[b]thiophene-3-carboxylate] |  |  |  |
